Test results reported in US20170190671A1, “BIS(ARYL)CATECHOL DERIVATIVES AS HERBICIDES” (E I DU PONT DE NEMOURS AND COMPANY, priority 2014, published 2017).

How the values were obtained:
Experiment in all cases: Test C preemergence
Assay type in all cases: in vivo
Details in all cases: scale 0 to 100
[1] = test system: large (Lg) crabgrass (Digitaria sanguinalis)
Procedure, shortened: (§1)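 Steps: plant seeds in loam-sand soil and treat preemergence, or grow plants in peat-based medium to 2-18 cm and spray; compound formulated in non-phytotoxic solvent/surfactant; hold in greenhouse 13-15 days; score visually versus controls from 0 (no effect) to 100 (complete control).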

[2] = test system: waterhemp (common waterhemp, Amaranthus rudis)
Procedure, shortened: as §1

[3] = test system: morningglory (Ipomoea coccinea)
Procedure, shortened: as §1

[4] = test system: giant foxtail (Setaria faberii)
Procedure, shortened: as §1

[5] = test system: Italian ryegrass (Lolium multiflorum)
Procedure, shortened: as §1

[6] = test system: barnyardgrass (Echinochloa crus-galli)
Procedure, shortened: as §1

[7] = test system: galium (catchweed bedstraw, Galium aparine)
Procedure, shortened: as §1

[8] = test system: winter wheat (Triticum aestivum)
Procedure, shortened: as §1

[9] = test system: velvetleaf (Abutilon theophrasti)
Procedure, shortened: as §1

[10] = test system: lambsquarters (Chenopodium album)
Procedure, shortened: as §1

soybean (Glycine max) = test system: soybean (Glycine max)
Procedure, shortened: as §1

[11] = test system: johnsongrass (Sorghum halepense)
Procedure, shortened: as §1

corn (Zea mays) = test system: corn (Zea mays)
Procedure, shortened: as §1

[12] = test system: pigweed (Amaranthus retroflexus)
Procedure, shortened: as §1

[13] = test system: ragweed (common ragweed, Ambrosia elatior)
Procedure, shortened: as §1

## FC(F)(F)c1cnc(Oc2c(Br)cccc2Oc2ncc(Cl)cn2)nc1 [Compound 24]
[1]; 31 g ai/ha, Preemergence
  Plant response rating, Crabgrass, Large: 100
[1]; 62 g ai/ha, Preemergence
  Plant response rating, Crabgrass, Large: 100
[1]; 125 g ai/ha, Preemergence
  Plant response rating, Crabgrass, Large: 100
[1]; 250 g ai/ha, preemergence
  Plant response rating, Crabgrass, Large: 100
[2]; 31 g ai/ha, Preemergence
  Plant response rating, Waterhemp: 100
[2]; 62 g ai/ha, Preemergence
  Plant response rating, Waterhemp: 100
[2]; 125 g ai/ha, Preemergence
  Plant response rating, Waterhemp: 100
[2]; 250 g ai/ha, preemergence
  Plant response rating, Waterhemp: 100
[3]; 31 g ai/ha, Preemergence
  Plant response rating, Morningglory: 25
[3]; 62 g ai/ha, Preemergence
  Plant response rating, Morningglory: 85
[3]; 125 g ai/ha, Preemergence
  Plant response rating, Morningglory: 80
[3]; 250 g ai/ha, preemergence
  Plant response rating, Morningglory: 95
[4]; 31 g ai/ha, Preemergence
  Plant response rating, Foxtail, Giant: 98
[4]; 62 g ai/ha, Preemergence
  Plant response rating, Foxtail, Giant: 98
[4]; 125 g ai/ha, Preemergence
  Plant response rating, Foxtail, Giant: 100
[4]; 250 g ai/ha, preemergence
  Plant response rating, Foxtail, Giant: 100
[5]; 31 g ai/ha, Preemergence
  Plant response rating, Ryegrass, Italian: 55
[5]; 62 g ai/ha, Preemergence
  Plant response rating, Ryegrass, Italian: 90
[5]; 125 g ai/ha, Preemergence
  Plant response rating, Ryegrass, Italian: 95
[5]; 250 g ai/ha, preemergence
  Plant response rating, Ryegrass, Italian: 95
[6]; 31 g ai/ha, Preemergence
  Plant response rating, Barnyardgrass: 75
[6]; 62 g ai/ha, Preemergence
  Plant response rating, Barnyardgrass: 100
[6]; 125 g ai/ha, Preemergence
  Plant response rating, Barnyardgrass: 100
[6]; 250 g ai/ha, preemergence
  Plant response rating, Barnyardgrass: 100
[7]; 31 g ai/ha, Preemergence
  Plant response rating, Galium: 98
[7]; 62 g ai/ha, Preemergence
  Plant response rating, Galium: 98
[7]; 125 g ai/ha, Preemergence
  Plant response rating, Galium: 100
[7]; 250 g ai/ha, preemergence
  Plant response rating, Galium: 100
[8]; 31 g ai/ha, Preemergence
  Plant response rating, Wheat: 15
[8]; 62 g ai/ha, Preemergence
  Plant response rating, Wheat: 30
[8]; 125 g ai/ha, Preemergence
  Plant response rating, Wheat: 60
[8]; 250 g ai/ha, preemergence
  Plant response rating, Wheat: 90
[9]; 31 g ai/ha, Preemergence
  Plant response rating, Velvetleaf: 40
[9]; 62 g ai/ha, Preemergence
  Plant response rating, Velvetleaf: 85
[9]; 125 g ai/ha, Preemergence
  Plant response rating, Velvetleaf: 90
[9]; 250 g ai/ha, preemergence
  Plant response rating, Velvetleaf: 90
[10]; 31 g ai/ha, Preemergence
  Plant response rating, Lambsquarters: 75
[10]; 62 g ai/ha, Preemergence
  Plant response rating, Lambsquarters: 90
[10]; 125 g ai/ha, Preemergence
  Plant response rating, Lambsquarters: 98
[10]; 250 g ai/ha, preemergence
  Plant response rating, Lambsquarters: 98
Soybean (Glycine max); 62 g ai/ha, Preemergence
  Plant response rating, Soybean: 40
Soybean (Glycine max); 125 g ai/ha, Preemergence
  Plant response rating, Soybean: 50
Soybean (Glycine max); 250 g ai/ha, preemergence
  Plant response rating, Soybean: 85
[11]; 31 g ai/ha, Preemergence
  Plant response rating, Johnsongrass: 40
[11]; 62 g ai/ha, Preemergence
  Plant response rating, Johnsongrass: 55
[11]; 125 g ai/ha, Preemergence
  Plant response rating, Johnsongrass: 80
[11]; 250 g ai/ha, preemergence
  Plant response rating, Johnsongrass: 100
Corn (Zea mays); 31 g ai/ha, Preemergence
  Plant response rating, Corn: 5
Corn (Zea mays); 62 g ai/ha, Preemergence
  Plant response rating, Corn: 20
Corn (Zea mays); 125 g ai/ha, Preemergence
  Plant response rating, Corn: 45
Corn (Zea mays); 250 g ai/ha, preemergence
  Plant response rating, Corn: 65
[12]; 31 g ai/ha, Preemergence
  Plant response rating, Pigweed: 100
[12]; 62 g ai/ha, Preemergence
  Plant response rating, Pigweed: 100
[12]; 125 g ai/ha, Preemergence
  Plant response rating, Pigweed: 100
[12]; 250 g ai/ha, preemergence
  Plant response rating, Pigweed: 100
[13]; 31 g ai/ha, Preemergence
  Plant response rating, Ragweed: 10
[13]; 62 g ai/ha, Preemergence
  Plant response rating, Ragweed: 10
[13]; 125 g ai/ha, Preemergence
  Plant response rating, Ragweed: 30
[13]; 250 g ai/ha, preemergence
  Plant response rating, Ragweed: 80
